Test results published in patent US20230265116A1, “DEGRADATION OF (EGFR) BY CONJUGATION OF EGFR INHIBITORS WITH E3 LIGASE LIGAND AND METHODS OF USE” (BEIGENE, LTD., priority 2020, published 2023).

Assays:
[1] = target: T1, EGFR L858R/T790M/C797S (BaF3-LTC cells) (Homo sapiens, UniProt P00533, C797S/L858R/T790M); assay: EGFR degradation HTRF assay, BaF3-LTC cells; assay type: cell-based; settings: BaF3-LTC cells; for DC50: EGFR degradation, IC50 (DC50) from curve fit, read-out: DC50(nM) BaF3-LTC; for Dmax: maximum percentage of inhibition (degradation), read-out: Dmax (%) BaF3-LTC
T1 construct: expressed in transfected cells; host or cells: BaF3
T1 sequence (P00533 25-1210 T790M/C797S/L858R): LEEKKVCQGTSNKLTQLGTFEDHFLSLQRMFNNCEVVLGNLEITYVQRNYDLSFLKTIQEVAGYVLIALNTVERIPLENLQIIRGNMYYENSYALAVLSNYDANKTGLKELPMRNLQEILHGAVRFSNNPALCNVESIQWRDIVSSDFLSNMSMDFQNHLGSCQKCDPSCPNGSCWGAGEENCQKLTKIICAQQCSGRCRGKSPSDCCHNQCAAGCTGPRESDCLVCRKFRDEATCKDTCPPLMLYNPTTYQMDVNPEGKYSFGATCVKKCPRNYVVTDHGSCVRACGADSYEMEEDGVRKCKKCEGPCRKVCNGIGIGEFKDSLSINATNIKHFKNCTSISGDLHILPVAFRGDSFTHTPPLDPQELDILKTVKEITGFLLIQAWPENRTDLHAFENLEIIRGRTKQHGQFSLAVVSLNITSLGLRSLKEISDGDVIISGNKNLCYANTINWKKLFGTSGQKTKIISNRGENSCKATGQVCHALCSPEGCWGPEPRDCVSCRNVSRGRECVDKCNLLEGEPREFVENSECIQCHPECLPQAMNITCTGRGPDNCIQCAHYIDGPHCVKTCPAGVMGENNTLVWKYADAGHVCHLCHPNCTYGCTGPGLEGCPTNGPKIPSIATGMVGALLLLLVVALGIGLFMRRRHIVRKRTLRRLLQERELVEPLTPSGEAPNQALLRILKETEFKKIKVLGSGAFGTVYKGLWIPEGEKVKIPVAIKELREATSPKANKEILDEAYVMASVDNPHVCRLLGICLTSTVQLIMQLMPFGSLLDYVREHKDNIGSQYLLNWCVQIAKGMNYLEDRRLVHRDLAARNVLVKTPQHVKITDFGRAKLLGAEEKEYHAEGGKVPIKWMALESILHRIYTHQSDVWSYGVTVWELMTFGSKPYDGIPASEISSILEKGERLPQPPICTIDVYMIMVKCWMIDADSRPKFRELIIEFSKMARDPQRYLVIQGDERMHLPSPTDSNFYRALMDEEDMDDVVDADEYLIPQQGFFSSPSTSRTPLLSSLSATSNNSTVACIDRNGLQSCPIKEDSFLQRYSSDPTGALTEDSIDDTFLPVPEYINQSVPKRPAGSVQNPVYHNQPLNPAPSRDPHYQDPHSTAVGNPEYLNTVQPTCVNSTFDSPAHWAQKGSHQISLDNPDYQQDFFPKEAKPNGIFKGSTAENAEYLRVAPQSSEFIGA
Experimental: (§1) BaF3 WT(wild type), BaF3-LTC(L858R/T790M/C797S) and BaF3-DTC(Del19/T790M/C797S) cells are treated with compounds diluted in 0.2% DMSO cell culture medium and incubate for 16h, 37° C., 5% CO2, H1975-#36, H1975-#28, H1975-#23 and HCC827 cells are treated with compounds diluted in 0.2% DMSO cell culture medium on day 2, incubate for 16h, 37° C., 5% CO2.the final concentriation of compounds in all assay is start with 10 uM, 5-fold dilution, total 8 doses were included.
(§2) After 16h treatment, add HTRF lysis buffer to each well; seal the plate and incubate 1 hour at room temperature on a plate shaker; Once the cells are lysed, 16 μL of cell lysate are transferred to a PE 384-well HTRF detection plate; 4 μL of pre-mixed HTRF antibodies are added to each well; Cover the plate with a plate sealer, spin 1000 rpm for 1 min, Incubate overnight at room temperature; Read on BMG PheraStar with HTRF protocol (337 nm-665 nm-620 nm).
(§3) The inhibition (degradation) percentage of the compound was calculated by the following equation: Inhibition percentage of Compound=100-100×(Signal-low control)/(High control-low control), wherein signal=each test compound group
(§4) High control=Cell group with added DMSO and without compound, indicating microplate readings without EGFR degradation;
(§5) Dmax is the maximum percentage of inhibition (degradation).
(§6) The IC50 (DC50) value of a compound can be obtained by fitting the following equation
(§7) Y=Bottom+(TOP−Bottom)/(1+((IC50/X)^hillslope))
(§8) Wherein, X and Y are known values, and IC50, Hillslope, Top and Bottom are the parameters obtained by fitting with software. Y is the inhibition percentage (calculated from the equation), X is the concentration of the compound; IC50 is the concentration of the compound when the 50% inhibition is reached. The smaller the IC50 value is, the stronger the inhibitory ability of the compound is. Vice versa, the higher the IC50 value is, the weaker the inhibitory ability of the compound is; Hillslope represents the slope of the fitted curve, generally around 1*; Bottom represents the minimum value of the curve obtained by data fitting, which is generally 0%±20%; Top represents the maximum value of the curve obtained by data fitting, which is generally 100%±20%. The experimental data were fitted by calculating and analyzing with Dotmatics data analysis software.

[2] = test system: EGFR Del19/T790M/C797S (H1975-clone #28); assay: EGFR degradation HTRF assay, H1975-clone #28 DTC cells; assay type: cell-based; settings: H1975 # 28 DTC cells; for DC50: EGFR degradation, IC50 (DC50) from curve fit, read-out: DC50(nM) H1975 # 28 DTC; for Dmax (%) H1975 # 28 DTC: maximum percentage of inhibition (degradation)
Experimental: H1975-clone #28(Del19/T790M/C797S) and H1975-clone #23(Del19/C797S). EGFR-Del19/T790M/C797S and EGFR-Del19/C797S were stably expressed in H1975 cell lines by lentivirus-mediated over-expression, respectively. The EGFR over-expressed cells then underwent gene knockout, in which the EGFR targeting sgRNA was designed to only target the endogenous EGFR copies and preserve the exogenous EGFR copies. Followed by the gene knockout, the edited H1975 cells were seeded in 96 well plates at the concentration of 1 cell/well, cultured for about 2 weeks to allow single clones formation. The formed clones were screened by DNA sequencing and whole exon sequencing analysis for the desired edition. H1975-clone #28 and H1975-clone #23 were finally confirmed as homozygous Del19/T790M/C797S EGFR and Del19/C797S EGFR clones, respectively.
as §1, §2, §3, §4, §5, §6, §7, §8

`CCc1ccc2c(P(C)(C)=O)c(Nc3nc(Nc4cc(CC)c(N5CCC(N6CCN(CCc7cccc8c7n(C)c(=O)n8C7CCC(=O)NC7=O)CC6)CC5)cc4OC)ncc3Br)ccc2n1` (centres unmarked) [Example 451, 3-(4-(2-(4-(1-(4-((5-bromo-4-((5-(dimethylphosphoryl)-2-ethylquinolin-6-yl)amino)pyrimidin-2-yl)amino)-2-ethyl-5-methoxyphenyl)piperidin-4-yl)piperazin-1-yl)ethyl)-3-methyl-2-oxo-2,3-dihydro-1H-benzo[d]imidazol-1-yl)piperidine-2,6-dione] gave a DC50 [1] of 3.64 nM, a Dmax [1] of 95.4% and a DC50 [2] of 0.612 nM. The “Dmax (%) H1975 # 28 DTC” value [2] was 70.68%.
Compound `CCc1ccc2c(P(C)(C)=O)c(Nc3nc(Nc4cc(CC)c(N5CCC(N6CCN(CCc7c(F)ccc8c7n(C)c(=O)n8C7CCC(=O)NC7=O)CC6)CC5)cc4OC)ncc3Br)ccc2n1` (centres unmarked) [Example 452, 3-(4-(2-(4-(1-(4-((5-bromo-4-((5-(dimethylphosphoryl)-2-ethylquinolin-6-yl)amino)pyrimidin-2-yl)amino)-2-ethyl-5-methoxyphenyl)piperidin-4-yl)piperazin-1-yl)ethyl)-5-fluoro-3-methyl-2-oxo-2,3-dihydro-1H-benzo[d]imidazol-1-yl)piperidine-2,6-dione] has a DC50 [1] of 3.96 nM, a Dmax [1] of 89.7% and a DC50 [2] of 0.863 nM. The “Dmax (%) H1975 # 28 DTC” value [2] was 78.26%.
`CCc1ccc2c(P(C)(C)=O)c(Nc3nc(Nc4cc(CC)c(N5CCC(N6CCN(CCc7cccc8c7n(CC)c(=O)n8C7CCC(=O)NC7=O)CC6)CC5)cc4OC)ncc3Br)ccc2n1` (centres unmarked) [Example 453, 3-(4-(2-(4-(1-(4-((5-bromo-4-((5-(dimethylphosphoryl)-2-ethylquinolin-6-yl)amino)pyrimidin-2-yl)amino)-2-ethyl-5-methoxyphenyl)piperidin-4-yl)piperazin-1-yl)ethyl)-3-ethyl-2-oxo-2,3-dihydro-TH-benzo[d]imidazol-1-yl)piperidine-2,6-dione] was tested, and the DC50 [1] was 5.7 nM, the Dmax [1] was 93.1% and the DC50 [2] was 0.704 nM. For the same compound, the “Dmax (%) H1975 # 28 DTC” value [2] was 77.04%.
`CCc1ccc2c(P(C)(C)=O)c(Nc3nc(Nc4cc(CC)c(N5CCC(N6CCN(CCc7cccc8c7n(C7CC7)c(=O)n8C7CCC(=O)NC7=O)CC6)CC5)cc4OC)ncc3Br)ccc2n1` (centres unmarked) [Example 454, 3-(4-(2-(4-(1-(4-((5-bromo-4-((5-(dimethylphosphoryl)-2-ethylquinolin-6-yl)amino)pyrimidin-2-yl)amino)-2-ethyl-5-methoxyphenyl)piperidin-4-yl)piperazin-1-yl)ethyl)-3-cyclopropyl-2-oxo-2,3-dihydro-1H-benzo[d]imidazol-1-yl)piperidine-2,6-dione] showed a DC50 [1] of 5.13 nM, a Dmax [1] of 92.3% and a DC50 [2] of 0.735 nM. For the same compound, the “Dmax (%) H1975 # 28 DTC” value [2] was 78.41%.
`CCc1ccc2c(P(C)(C)=O)c(Nc3nc(Nc4cc(CC)c(N5CCC(N6CCN(CCCc7ccc8c(c7)oc(=O)n8C7CCC(=O)NC7=O)CC6)CC5)cc4OC)ncc3Br)ccc2n1` (centres unmarked) [Example 456, 3-(6-(3-(4-(1-(4-((5-bromo-4-((5-(dimethylphosphoryl)-2-ethylquinolin-6-yl)amino)pyrimidin-2-yl)amino)-2-ethyl-5-methoxyphenyl)piperidin-4-yl)piperazin-1-yl)propyl)-2-oxobenzo[dloxazol-3(2H)-yl)piperidine-2,6-dione] gave a DC50 [1] of 3.56 nM, a Dmax [1] of 89.9% and a DC50 [2] of 0.621 nM. For the same compound, the “Dmax (%) H1975 # 28 DTC” value [2] was 71.36%.
For `CCc1ccc2c(P(C)(C)=O)c(Nc3nc(Nc4cc(CC)c(N5CCC(N6CCN(CCc7cc8oc(=O)n(C9CCC(=O)NC9=O)c8cc7F)CC6)CC5)cc4OC)ncc3Br)ccc2n1` (centres unmarked) [Example 457, 3-(6-(2-(4-(1-(4-((5-bromo-4-((5-(dimethylphosphoryl)-2-ethylquinolin-6-yl)amino)pyrimidin-2-yl)amino)-2-ethyl-5-methoxyphenyl)piperidin-4-yl)piperazin-1-yl)ethyl)-5-fluoro-2-oxobenzo[d]oxazol-3(2H)-yl)piperidine-2,6-dione], the DC50 [1] was 3.25 nM, the Dmax [1] was 92.5% and the DC50 [2] was 0.655 nM. For the same compound, the “Dmax (%) H1975 # 28 DTC” value [2] was 74.18%.
`CCOc1cc(N2CCC(N3CCN(CCc4c(C)ccc5c4n(C)c(=O)n5C4CCC(=O)NC4=O)CC3)CC2)c(CC)cc1Nc1ncc(Br)c(Nc2ccc3nc(CC)ccc3c2P(C)(C)=O)n1` (centres unmarked) [Example 461, 3-(4-(2-(4-(1-(4-((5-bromo-4-((5-(dimethylphosphoryl)-2-ethylquinolin-6-yl)amino)pyrimidin-2-yl)amino)-5-ethoxy-2-ethylphenyl)piperidin-4-yl)piperazin-1-yl)ethyl)-3,5-dimethyl-2-oxo-2,3-dihydro-1H-benzo[d]imidazol-1-yl)piperidine-2,6-dione] gave a DC50 [1] of 132 nM, a Dmax [1] of 90% and a DC50 [2] of 38.8 nM. The “Dmax (%) H1975 # 28 DTC” value [2] was 75.83%.
Work on `CCOc1cc(N2CCC(N3CCN(C(=O)C4CN(c5cc(F)cc6c5n(C)c(=O)n6C5CCC(=O)NC5=O)C4)CC3)CC2)c(CC)cc1Nc1ncc(Br)c(Nc2ccc3nc(CC)ccc3c2P(C)(C)=O)n1` (centres unmarked) [Example 466, 3-(4-(3-(4-(1-(4-((5-bromo-4-((5-(dimethylphosphoryl)-2-ethylquinolin-6-yl)amino)pyrimidin-2-yl)amino)-5-ethoxy-2-ethylphenyl)piperidin-4-yl)piperazine-1-carbonyl)azetidin-1-yl)-6-fluoro-3-methyl-2-oxo-2,3-dihydro-1H-benzo[d]imidazol-1-yl)piperidine-2,6-dione] yielded a DC50 [1] of 15.1 nM, a Dmax [1] of 90.8% and a DC50 [2] of 2.03 nM. The “Dmax (%) H1975 # 28 DTC” value [2] was 72.67%.
For `CCOc1cc(N2CCC(N3CCN(CC4CN(c5cc(F)cc6c5n(C)c(=O)n6C5CCC(=O)NC5=O)C4)CC3)CC2)c(CC)cc1Nc1ncc(Br)c(Nc2ccc3nc(CC)ccc3c2P(C)(C)=O)n1` (centres unmarked) [Example 467, 3-(4-(3-((4-(1-(4-((5-bromo-4-((5-(dimethylphosphoryl)-2-ethylquinolin-6-yl)amino)pyrimidin-2-yl)amino)-5-ethoxy-2-ethylphenyl)piperidin-4-yl)piperazin-1-yl)methyl)azetidin-1-yl)-6-fluoro-3-methyl-2-oxo-2,3-dihydro-1H-benzo[d]imidazol-1-yl)piperidine-2,6-dione], the DC50 [1] was 12.5 nM, the Dmax [1] was 91.3% and the DC50 [2] was 1.83 nM. For the same compound, the “Dmax (%) H1975 # 28 DTC” value [2] was 76.06%.
Work on `CCOc1cc(N2CCC(N3CCN(CCc4c(F)ccc5c4oc(=O)n5C4CCC(=O)NC4=O)CC3)CC2)c(CC)cc1Nc1ncc(Br)c(Nc2ccc3nc(CC)ccc3c2P(C)(C)=O)n1` (centres unmarked) [Example 471, 3-(7-(2-(4-(1-(4-((5-bromo-4-((5-(dimethylphosphoryl)-2-ethylquinolin-6-yl)amino)pyrimidin-2-yl)amino)-5-ethoxy-2-ethylphenyl)piperidin-4-yl)piperazin-1-yl)ethyl)-6-fluoro-2-oxobenzo[d]oxazol-3(2H)-yl)piperidine-2_6-dione] yielded a DC50 [1] of 36 nM, a Dmax [1] of 83.9% and a DC50 [2] of 1.98 nM. For the same compound, the “Dmax (%) H1975 # 28 DTC” value [2] was 73.66%.
`CCOc1cc(N2CCC(N3CCN(CCc4cc(F)cc5c4oc(=O)n5C4CCC(=O)NC4=O)CC3)CC2)c(CC)cc1Nc1ncc(Br)c(Nc2ccc3nc(CC)ccc3c2P(C)(C)=O)n1` (centres unmarked) [Example 472, 3-(7-(2-(4-(1-(4-((5-bromo-4-((5-(dimethylphosphoryl)-2-ethylquinolin-6-yl)amino)pyrimidin-2-yl)amino)-5-ethoxy-2-ethylphenyl)piperidin-4-yl)piperazin-1-yl)ethyl)-5-fluoro-2-oxobenzo[d]oxazol-3(2H)-yl)piperidine-2,6-dione] was tested, and the DC50 [1] was 19.6 nM, the Dmax [1] was 86.9% and the DC50 [2] was 0.945 nM. The “Dmax (%) H1975 # 28 DTC” value [2] was 80.01%.
